# Reference: patent US8481494B2, “Compounds for the treatment of diseases related to protein misfolding” (priority 2009, dated 2013)
# Where two headings read alike, the source gives them in different places. *1 amine or outer side, *2 acyl side, *3 side chain or, on linkers, in order; H or OH if unused. Where a SMILES comes first, the peptide text is derived from it. [ ]: non-standard residue; d: D form. The star is where a group is joined. X1 = O=C(c1cc([N+](=O)[O-])n[nH]1)*; X2 = O=C(c1cc(N[*:1])n[nH]1)[*:2]; AEEEA = NCCOCCOCCOCC(=O)O
# What was measured:
# [1] = Solubility of the unprotected aminopyrazole trimers (stock solutions); details: water (class a) or DMSO (class b)
# Experimental: The ligands were dissolved in 100% DMSO as 4.95 mM stock solutions and were stored at −20° C.
# [2] = tested on: differentiated rat pheochromocytoma (PC-12) cells; experiment: cells
# Experimental: Next, to examine whether the aminopyrazole trimers could protect cell from Aβ42-induced neurotoxicity, cells were treated for […] with 10 μM Aβ(1-42), a concentration that produces 30 to 40% decrease in cell viability, in the absence or presence of 100 μM of each compound. The viability of the cells then was assessed using the MTT assay.
# MTT viability assays. Cell viability assays were performed as described in Fradinger et al. (Fradinger et al., PNAS, 2008). Rat pheochromocytoma (PC-12) cells were maintained in F-12 nutrient mixture with Kaighn's modification (F-12K) (Gibco BRL, Carlsbad, Calif.) with 15% heat-inactivated horse serum and 2.5% FBS at 37° C. in an atmosphere of 5% CO2. For cell viability assays, cells were plated in 96-well plates at a density of 25,000 cells per well in differentiation media (F-12K, 0.5% FBS, […] nerve growth factor) and maintained for 48 h. Aβ42 was solubilized in a minimal amount of DMSO (Sigma) and then diluted in the F-12K media in the absence or presence of the compounds and then added to cells and incubated for 48 h at 37° C. The final Aβ42 concentration was always kept constant at 10 μM. The stock solutions of the compounds were prepared at 10 mM in DMSO and diluted in the F-12K media at the required concentration. Negative controls included DMSO at the same concentration as in the peptide solutions and media alone. A positive control was […] staurosporine as lethal dose which represented 100% reduction in cell viability, based on which the percentage viability of all of the experimental conditions was calculated. Cell viability was assessed quantitatively by the CellTiter 96 Non-Radioactive Cell Proliferation Assay (Promega). Briefly, 15 μl of 3-(4,5-dimethylthiazol-2-yl)-2,5-diphenyltetra-zolium bromide (MTT) dye solution was incubated with the cells for 3 h. Then 100 μl of solubilization/stop solution was added and the plates were incubated overnight in the dark to ensure complete solubilization. Plates were read by using a Synergy HT microplate reader (BioTek), and the absorbance at 570 nm (formazan product) minus the absorbance at 630 nm (background) was recorded. Corrected absorbance was used to calculate the percent cell viability from the experimental change (Amedia-Aexperimental) over the dynamic range (Amedia-Astaurosporine). At least three independent experiments with six replicates (n≧18) were carried out, and the results were averaged.
# To determine the IC50 value of each of the compounds, dose-dependence MTT experiments with the compounds were conducted. Aβ42 was used at 10 μM and the compounds were used at 100, 30, 10, 3, 1 and 0.3 μM. Three independent experiments with six replicates (n≧18) were carried out, and results were averaged. The data for each compound was fitted to the following equation to get the IC50 values. y=Bottom+((Top−Bottom)/(1+10^(x-log(IC^50^))))
# Top: the y value at which the top of the sigmoidal curve becomes parallel to the X-axis; Bottom: the y value at which the bottom of the sigmoidal curve becomes parallel to the X-axis.
# Also, MTT viability assays were run with differentiated PC-12 cells.
# [3] = molecular target: T1, Aβ(1-42) (Homo sapiens, UniProt P05067); experiment: ThT equilibrium inhibition assay of Aβ aggregation; assay type: biochemical; details: for ThT values compared with the original trimer: Aβ(1-42), in words; for ThT fluorescence level, inhibition of aggregation: 33 μM Aβ42, 198 μM ligand, 10 mM PBS pH 7.3, 72 h
# T1 construct: Aβ(1-42)-peptide (Bachem, Bubendorf, Germany) was prepared in HFIP; purchased Bachem, Bubendorf
# Experimental: After 72 h, the aggregation process has reached a maximum in the absence or presence of any trimeric ligand, even for the slow Aβ (1-40) peptide. The respective equilibrium concentration is then indicated by the relative fluorescence intensity reached at the end point. The full series of new aminopyrazole trimer derivatives was subjected to ThT inhibition experiments and the final equilibrium was analyzed by comparison of the respective fluorescence intensities of intercalated dye at 482 nm (exc. at 442 nm). […] Their proposed mechanism of action is discussed within the next chapters together with all the other biophysical, biochemical as well as modeling data.
# (§1) Thioflavin T (ThT) measurements were carried out in a 384-well plate (Nunc GmbH, Wiesbaden, Germany) in an InfiniTe 200 plate reader (Tecan GmbH, Crailsheim, Germany). Fluorescence intensity was measured at 37° C., 446 nm excitation wavelength (bandwidth 9 nm) and 490 nm emission wavelength with a bandwidth of 20 nm. Each data point was averaged over 40 lamp flashes. Each measurement cycle was started by shaking the sample carrier orbitally for 30 s at medium intensity to avoid settling of larger aggregates. The 384-well plate was covered with a transparent and DMSO-stable film (Nunc GmbH, Wiesbaden, Germany). Each single sample was composed of 33 μM Aβ(1-40) or rather Aβ(1-42) in 10 mM PBS (phosphate buffered saline), 10.7% DMSO, 10 μM ThT and 198 μM of the test compound. For graph representation emission values of fourfold samples were averaged. Each test compound was measured separately, both in 10 mM PBS and 10 mM PBS with ThT to exclude any potential interactions between ligand and ThT.
# The ThT assay solution was briefly centrifugated and it was pipetted in a 384-well plate. The ThT fluorescence was measured at λEx=446 nm and λEm=490 nm. Each point is the average of quadruplication.
# [4] = molecular target: T2, preformed Aβ(1-42) fibrils (Homo sapiens, UniProt P05067); experiment: ThT equilibrium disaggregation assay of preformed fibrils; assay type: biochemical; details: 33 μM Aβ42 preformed fibrils, 198 μM ligand, 10 mM PBS pH 7.3
# T2 construct: Aβ(1-42)-peptide (Bachem, Bubendorf, Germany) was prepared in HFIP; purchased Bachem, Bubendorf
# Source text: Starting from preformed fibrils, the disassembly process was also monitored with the full series of modified trimeric aminopyrazoles. […] In other words, little difference is observed between the end points of aggregation assays, in which the ligand inhibits de novo aggregation starting from monomeric Aβ molecules, and those experiments, which require disaggregation of preformed fibrils by externally added ligand. Experimental evidence is thus provided for the fact, that aminopyrazole ligands operate in a fully reversible fashion, and reach an open equilibrium when the thermodynamically most favorable complex is formed.
# as §1
# After that, 9.5 μL ThT (62.7 μM stock solution) was pipetted and the assay solution was briefly centrifugated. The ThT fluorescence was measured at λEx=446 nm and λEm=490 nm. For graph representation emission values of fourfold samples were averaged.
# [5] = Rattus norvegicus, PC-12, read-out: IC50 of inhibition of Aβ-induced toxicity
# T2 sequence (P05067 672-713 limits assumed): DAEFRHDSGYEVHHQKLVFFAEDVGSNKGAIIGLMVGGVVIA
# T1 sequence (P05067 672-713 limits assumed): as above
Molecule,solubility [1],ThT values compared with the original trimer [3],"ThT fluorescence level, disaggregation [4]","ThT fluorescence level, inhibition of aggregation [3]",other results
"O=C(O)CCCNC(=O)c1cc(NC(=O)c2cc(NC(=O)c3cc([N+](=O)[O-])n[nH]3)n[nH]2)n[nH]1 [Trimer-GABA-OH, 4-(3-(3-(3-Nitro-1H-pyrazole-5-carboxamido)-1H-pyrazole-5-carboxamido)-1H-pyrazole-5-carboxamido)butanoic acid]",0.2 to 4.95 mM,above the trimer standard,,,"IC50 [2, 5]: 18.5 µM"
"COC(=O)CCCNC(=O)c1cc(NC(=O)c2cc(NC(=O)c3cc([N+](=O)[O-])n[nH]3)n[nH]2)n[nH]1 [Trimer-GABA-OMe, 4-(3-(3-(3-Nitro-1H-pyrazole-5-carboxamido)-1H-pyrazole-5-carboxamido)-1H-pyrazole-5-carboxamido)butanoic acid methyl ester]",0.2 to 4.95 mM,above the trimer standard,,,"IC50 [2, 5]: 20.3 µM"
"1-(3-(3-(3-nitro-1H-pyrazole-5-carboxamido)-1H-pyrazole-5-carbox-amido)-1H-pyrazol-5-yl)-1-oxo-5,8,11-trioxa-2-azatridecan-13-carboxamido-(S)-lysinyl-(S)-lysinyl-(S)-lysinyl-(S)-lysinyl-(S)-lysinyl-(S)-glycine [Trimer-TEG-KKKKKG-OH]",,,20%,20%,
"CC(NC(=O)C(CCCCN)NC(=O)c1cc(NC(=O)c2cc(NC(=O)c3cc([N+](=O)[O-])n[nH]3)n[nH]2)n[nH]1)C1CCCCC1.O=C(O)C(F)(F)F (stereo not drawn) [Trimer-Lys-Che, N-(6-Amino-1-(1-cyclohexylethylamino)-1-oxohexan-2-yl)-3-(3-(3-nitro-1H-pyrazole-5-carboxamido)-1H-pyrazole-5-carboxamido)-1H-pyrazole-5-carboxamide-trifluoro-acetate]",> 4.95 mM,surpass the original trimer activity,,,
"NCCCC[C@H](NC(=O)c1cc(NC(=O)c2cc(NC(=O)c3cc([N+](=O)[O-])n[nH]3)n[nH]2)n[nH]1)C(=O)N[C@@H](CCCCN)C(=O)N[C@@H](CCCCN)C(=O)N[C@@H](CCCCN)C(=O)N[C@@H](CCCCN)C(=O)NCC(=O)O [Trimer-KKKKKG-OH, 3-(3-(3-nitro-1H-pyrazole-5-carboxamido)-1H-pyrazole-5-carboxamido)-1H-pyrazole-5-carboxamido-(S)-lysinyl-(S)-lysinyl-(S)-lysinyl-(S)-lysinyl-(S)-lysinyl-(S)-glycine] (X1-[X2][X2]KKKKKG-OH)",,,20%,20%,solubility: > 4.95 mM
"CC(C)C[C@H](NC(=O)[C@H](CCCCN)NC(=O)COCCOCCOCCNC(=O)c1cc(NC(=O)c2cc(NC(=O)c3cc([N+](=O)[O-])n[nH]3)n[nH]2)n[nH]1)C(=O)N[C@H](C(=O)N[C@@H](Cc1ccccc1)C(=O)N[C@@H](Cc1ccccc1)C(=O)O)C(C)C [Trimer-TEG-KLVFF-OH, 1-(3-(3-(3-Nitro-1H-pyrazole-5-carboxamido)-1H-pyrazole-5-carbox-amido)-1H-pyrazol-5-yl)-1-oxo-5,8,11-trioxa-2-azatridecan-13-carboxamido-(S)-lysinyl-(S)-leucinyl-(S)-valinyl-(S)-phenylalaninyl-(S)-phenylalanine] (X1-[X2][X2][AEEEA]KLVFF-OH)",,,,,IC50 [2]: > 100 µM; solubility: 0.2 to 4.95 mM
"COC(=O)C(CCCCN)NC(=O)COCCOCCOCCNC(=O)c1cc(NC(=O)c2cc(NC(=O)c3cc([N+](=O)[O-])n[nH]3)n[nH]2)n[nH]1.O=C(O)C(F)(F)F (stereo not drawn) [Trimer-TEG-Lys-OMe, Trifluoro-acetate5-methoxycarbonyl-5-(2-{2-[2-(2-{[5-({5-[(5-nitro-2H-pyrazole-3-carbonyl)-amino]-2H-pyrazole-3-carbonyl}-amino)-2H-pyrazole-3-carbonyl]-amino}-ethoxy)-ethoxy]ethoxy}-acetylamino)-pentyl-ammonium]",,surpass the original trimer activity,20%,20%,"viability increase (rescue from Aβ toxicity) ([2]; PC-12 cells, 10 μM Aβ(1-42), 100 μM compound): > 40%; IC50 ([2]; read-out: IC50 of inhibition of Aβ-induced toxicity, PC-12 cells, MTT, Aβ42 10 μM, ligand 0.3-100 μM): 52.7 µM"
"NCCNC(=O)c1cc(NC(=O)c2cc(NC(=O)c3cc([N+](=O)[O-])n[nH]3)n[nH]2)n[nH]1 [Trimer-diamine, N-(2-Aminoethyl)-3-(3-(3-nitro-1H-pyrazole-5-carboxamido)-1H-pyrazole-5-carboxamido)-1H-pyrazole-5-carboxamide]",0.2 to 4.95 mM,above the trimer standard,,,
"CC(NC(=O)c1cc(NC(=O)c2cc(NC(=O)c3cc([N+](=O)[O-])n[nH]3)n[nH]2)n[nH]1)C1CCCCC1 (stereo not drawn) [Trimer-Che, N-(1-Cyclohexylethyl)-3-(3-(3-nitro-1H-pyrazole-5-carboxamido)-1H-pyrazole-5-carboxamido)-1H-pyrazole-5-carboxamide]",0.2 to 4.95 mM,surpass the original trimer activity,,,
